According to US20250326708A1, “LONG-ACTING SPLEEN-TARGETING CATIONIC LIPID COMPOUND COMPRISING BENZENE RING STRUCTURE, COMPOSITION COMPRISING SAME, AND USE THEREOF” (Beijing Youcarekechuang Pharmaceutical Technology Co., Ltd., priority 2024, published 2025):
Several values for one entry are separate records, joined by “and”; a condition that tells them apart may be missing. Identical values can stand only once.

Legend:
293T cells [1] = test: Fluorescence detection of Fluc-mRNA (transfection efficiency) of LNP preparations; format: cell-based; details: for Relative light unit (RLU): LNP with 0.3 μg Fluc-mRNA, 96-well plate, 24 hours; for Cellular transfection efficiency, times that of HHMA: vs HHMA; for Cellular transfection efficiency, times that of I-1: vs I-1; for Cellular transfection efficiency, times that of Lipofectamine 3000: vs Lipofectamine 3000; for Cellular transfection efficiency, times that of MC3: vs MC3; for Cellular transfection efficiency, times that of SM-102: vs SM-102; for Cellular transfection efficiency, times that of YK-501: vs YK-501; for Cellular transfection efficiency, times that of YK-506: vs YK-506; for Cellular transfection efficiency, times that of compound 7: vs compound 7
Experimental: (§1) Cell recovery and passage: 293T cells were recovered and cultured in culture dishes. The cells were passaged until the required number of cells was obtained.
(§2) Seeding plates: The cells in culture dishes were digested and counted, then seeded in a 96-well plate at 10,000 cells per well and seeded in a 12-well plate at 150,000 cells per well. The cells were cultured overnight until cell adhesion.
(§3) The cationic lipids listed in Table 2 were each mixed with DSPC (AVT (Shanghai) Pharmaceutical Technology Co., Ltd.), cholesterol (AVT (Shanghai) Pharmaceutical Technology Co., Ltd.), and DMG-PEG2000 in a molar ratio of 49:10:39.5:1.5 and dissolved in ethanol to prepare ethanol lipid solutions. Using the ethanol injection method, the ethanol lipid solutions were quickly added to a citrate buffer (pH between 4 and 5), and vortexed for 30 seconds for later use. eGFP-mRNA (purchased from Shanghai BioHub Biotechnology Co., Ltd.), Fluc-mRNA (purchased from Shanghai BioHub Biotechnology Co., Ltd.), or Cy5 fluorescently labeled Leqvio (purchased from Sangon Biotech (Shanghai) Co., Ltd.) was diluted in a citrate buffer (pH between 4 and 5) to obtain an mRNA aqueous solution. A certain volume of the lipid solution and the mRNA aqueous solution were mixed to prepare liposomes at a total lipid-to-mRNA weight ratio of 15:1. The mixtures were sonicated at 25° C. for 15 minutes (ultrasonic frequency: 40 kHz, ultrasonic power: 800 W). The resulting liposomes were diluted 10-fold with PBS, followed by ultrafiltration using a 300 kDa ultrafiltration tube to remove ethanol. After adjusting the volume with PBS, LNP preparations encapsulating eGFP-mRNA or Fluc-mRNA were obtained, using cationic lipids, DSPC, cholesterol, and DMG-PEG2000 at a molar ratio of 49:10:39.5:1.5.
(§4) Cell recovery and passage: The method was the same as described in Example 3.
(§5) Seeding plates: The method was the same as described in Example 3.
LNP preparations containing 0.3 μg of Fluc-mRNA (with the vector components of the LNP preparations of cationic lipids, DSPC, cholesterol, and DMG-PEG2000 in a molar ratio of 49:10:39.5:1.5, where the cationic lipids are those listed in Table 1) were added to the cell culture medium in a 96-well plate. After 24 hours of continued culture, the corresponding reagents were added according to the instructions in the Gaussia Luciferase Assay Kit. Fluorescence intensity in each well was detected using the IVIS fluorescence detection system. The transfection efficiency of LNP preparations prepared with a series of cationic lipid compounds designed in the present disclosure, as well as cationic lipids from the prior art, including SM-102, HHMA, MC3, compound 7, and I-1, is shown in Table 4.

293T cells [2] = test: Cell viability assay (CCK-8) with LNP preparations of Fluc-mRNA; format: cell-based; details: for Cell viability: LNP with 1.5 μg Fluc-mRNA, 24 hours, CCK-8
Experimental: as §1, §2, §3, §4, §5
LNP preparations containing 1.5 μg of Fluc-mRNA (with the vector components of the LNP preparations of cationic lipids, DSPC, cholesterol, and DMG-PEG2000 in a molar ratio of 49:10:39.5:1.5, where the cationic lipids are those listed in Table 1) were added to the cell culture medium in a 96-well plate. After 24 hours of continued culture, 10 μL of CCK-8 solution was added to each well, and the culture plate was incubated in an incubator for 1 hour.

[3] = Particle size and polydispersity index (PDI) of lipid nanoparticles, dynamic light scattering; format: physicochemical; details: LNP preparation with the named cationic lipid; 90° scattering angle, 25° C
Excerpt: as §3
The particle size and polydispersity index (PDI) were measured using dynamic light scattering with a Malvern laser diffraction particle size analyzer.
10 μL of liposome solution was diluted to 1 mL with RNase-free deionized water and added to the sample cell. Each sample was measured three times. The measurement conditions were as follows: 90° scattering angle, 25° C.

female BALB/C mice [4] = test: Expression of delivered mRNA in different organs of mice (organ imaging); format: in vivo; details: for Average radiation intensity of mouse organs: Heart / Average radiation intensity of mouse organs: Kidney / Average radiation intensity of mouse organs: Liver / Average radiation intensity of mouse organs: Lung / Average radiation intensity of mouse organs: Lymph / Average radiation intensity of mouse organs: Spleen: 6 hours after 5 μg Fluc-mRNA subcutaneously; for Expression level of mRNA in the spleen, times that of SM-102 / Expression level of mRNA in the spleen, times that of YK-501 / Expression level of mRNA in the spleen, times that of YK-506: 6 h; for Expression level of mRNA in the spleen, times that of SM-102: vs SM-102; for Expression level of mRNA in the spleen, times that of YK-501: vs YK-501; for Expression level of mRNA in the spleen, times that of YK-506: vs YK-506
Experimental: LNP preparations containing 5 μg of Fluc-mRNA were subcutaneously injected into female BALB/C mice (4 to 6 weeks old, weighing 17 to 19 g). At specified time points after administration (6 h), the mice were intraperitoneally injected with fluorescent imaging substrates and allowed to move freely for 5 minutes. The average radiation intensity (corresponding to fluorescence intensity) of proteins expressed by the mRNA delivered by the LNP preparations in the mice in vivo was then detected using the IVIS Spectrum small-animal in vivo imaging system. After sampling, the mice were killed by cervical dislocation and dissected, and the internal organs: heart, liver, spleen, lung, kidney, and lymph of mice were accurately isolated. The average radiation intensity (corresponding to fluorescence intensity) of proteins expressed by the mRNA delivered by the LNP preparations in various organs of mice was then detected using the IVIS Spectrum small-animal in vivo imaging system.

female BALB/C mice [5] = test: Expression of delivered mRNA in mice in vivo (IVIS in vivo imaging); details: 10 μg Fluc-mRNA via tail vein
Experimental: LNP preparations containing 10 μg of Fluc-mRNA were injected via the tail vein into female BALB/C mice (4 to 6 weeks old, weighing 17 to 19 g). At specified time points after administration (6 h, 24 h, 48 h, and 7 d), the mice were intraperitoneally injected with fluorescent imaging substrates and allowed to move freely for 5 minutes. The average radiation intensity (corresponding to fluorescence intensity) of proteins expressed by the mRNA delivered by the LNP preparations in the mice in vivo was then detected using the IVIS Spectrum small-animal in vivo imaging system.

Row | SMILES | Relative light unit (RLU) (293T cells [1]) | Cell viability (293T cells [2]) [%] | PDI [3] [%] | Particle size [3] [nm] | Average radiation intensity of mouse organs: Heart (female BALB/C mice [4]) | Average radiation intensity of mouse organs: Kidney (female BALB/C mice [4]) | Average radiation intensity of mouse organs: Liver (female BALB/C mice [4]) | Average radiation intensity of mouse organs: Lung (female BALB/C mice [4]) | Average radiation intensity of mouse organs: Lymph (female BALB/C mice [4]) | Average radiation intensity of mouse organs: Spleen (female BALB/C mice [4]) | Average radiation intensity, in vivo imaging (female BALB/C mice [5]; 6 h) | Average radiation intensity, in vivo imaging (female BALB/C mice [5]; 24 h) | Average radiation intensity, in vivo imaging (female BALB/C mice [5]; 48 h) | Average radiation intensity, in vivo imaging (female BALB/C mice [5]; 7 d) | Cellular transfection efficiency, times that of HHMA (293T cells [1]; Fluc-mRNA LNP) [times] | Cellular transfection efficiency, times that of I-1 (293T cells [1]; Fluc-mRNA LNP) [times] | Cellular transfection efficiency, times that of Lipofectamine 3000 (293T cells [1]; Fluc-mRNA LNP) [times] | Cellular transfection efficiency, times that of MC3 (293T cells [1]; Fluc-mRNA LNP) [times] | Cellular transfection efficiency, times that of SM-102 (293T cells [1]; Fluc-mRNA LNP) [times] | Cellular transfection efficiency, times that of YK-501 (293T cells [1]; Fluc-mRNA LNP) [times] | also measured
1 | CCCCCCCCCCOC(=O)CCCN1CCN(CCCCCC(=O)OCC(CCCCCCC)CCCCCCCC)CC1 (centres unmarked) [YK-501, reference compound] | 46243 | 63 | 13.3 | 144 | 0 | 0 | 3334 | 0 | 0 | 14224 | 346241 | 174776 | 55543 | 5634 | – | – | – | – | – | – | –
2 | CCCCCCCCCCCCSSCCNC(=O)CCN1CCN(CCCCCC(=O)OCCC(CCCCCC)CCCCCC)CC1 [YK-506, reference compound] | 654224 | 90 | 12.2 | 141 | 0 | 0 | 18913 | 0 | 0 | 71213 | 1801233 | 257765 | 82221 | 34234 | – | – | – | – | – | – | –
3 | CCCCCCCCc1ccc(CCC(CO)(CO)NCCCCCCNC(=O)C(CCCCCC)CCCCCCCC)cc1 (centres unmarked) [YK-908, 2-hexyl-N-(6-((1-hydroxy-2-(hydroxymethyl)-4-(4-octylphenyl)butan-2-yl)amino)hexyl) decanamide] | – | 89 | 12.2 | 121 | 0 | 0 | 1423 | 0 | 0 | 168302 | 8918424 | 1176543 | 344643 | 64325 | 5.01 | 25.01 | 6.02 | 53.42 | 3.55 | 109.64 | Cellular transfection efficiency, times that of YK-506 (293T cells [1]; Fluc-mRNA LNP): 7.75 times; Cellular transfection efficiency, times that of YK-907 (293T cells [1]; Fluc-mRNA LNP, vs YK-907): 134 times and 134.49 times; Cellular transfection efficiency, times that of compound 7 (293T cells [1]; Fluc-mRNA LNP): 19.69 times; Cell viability higher than that of YK-907 (293T cells [2]; difference vs YK-907): 16%; Expression level of mRNA in the spleen, times that of SM-102 (female BALB/C mice [4]): 6.59 times; Expression level of mRNA in the spleen, times that of YK-501 (female BALB/C mice [4]): 11.83 times; Expression level of mRNA in the spleen, times that of YK-506 (female BALB/C mice [4]): 2.36 times
4 | CCCCCCCCCCOC(=O)CCCN(CCCCCC(=O)OCCC(CCCCCC)CCCCCC)CCNC(CO)(CO)CCc1ccc(CCCCCCCC)cc1 [YK-909, 3-hexylnonyl 6-((4-(decyloxy)-4-oxobutyl) (2-((1-hydroxy-2-(hydroxymethyl)-4-(4-octylphenyl)butan-2-yl)amino)ethyl)amino) hexanoate] | – | 92 | 11.9 | 132 | 0 | 0 | 9131 | 0 | 0 | 204435 | 12924543 | 1322432 | 576433 | 87433 | 6.71 | 33.44 | 8.05 | 71.44 | 4.75 | 146.62 | Cellular transfection efficiency, times that of YK-506 (293T cells [1]; Fluc-mRNA LNP): 10.36 times; Cellular transfection efficiency, times that of YK-906 (293T cells [1]; Fluc-mRNA LNP, vs YK-906): 246 times and 246.15 times; Cellular transfection efficiency, times that of compound 7 (293T cells [1]; Fluc-mRNA LNP): 26.33 times; Cell viability higher than that of YK-906 (293T cells [2]; difference vs YK-906): 29%; Expression level of mRNA in the spleen, times that of SM-102 (female BALB/C mice [4]): 8.00 times; Expression level of mRNA in the spleen, times that of YK-501 (female BALB/C mice [4]): 14.37 times; Expression level of mRNA in the spleen, times that of YK-506 (female BALB/C mice [4]): 2.87 times
